This series concerns HaCaT, a human keratinocyte cell line. Put plainly: Live/dead fluorescence staining cytotoxicity. Format: cell-based. The settings on record: treated at different concentrations for 24 h, calcein-AM / ethidium homodimer. The protocol:
First, HaCaT, a human keratinocyte cell line, was treated with tannic acid, TAMA, and TAMA-introduced nanoparticles (TANV) at different concentrations for 24 h. Thereafter, calcein-acetoxymethyl ester (calcein-AM), which stains viable cells, and ethidium homodimer, which stains dead cells, were treated simultaneously, and then washed twice with the PBS buffer solution to obtain images of viable and dead cells through fluorescence microscopy.

On to `O=C(OC[C@H]1O[C@@H](OC(=O)c2cc(O)c(O)c(OC(=O)c3cc(O)c(O)c(O)c3)c2)[C@H](OC(=O)c2cc(O)c(O)c(OC(=O)c3cc(O)c(O)c(O)c3)c2)[C@@H](OC(=O)c2cc(O)c(O)c(OC(=O)c3cc(O)c(O)c(O)c3)c2)[C@@H]1OC(=O)c1cc(O)c(O)c(OC(=O)c2cc(O)c(O)c(O)c2)c1)c1cc(O)c(O)c(OC(=O)c2cc(O)c(O)c(O)c2)c1` [tannic acid], for which the “cytotoxicity (live/dead assay)” value was “cytotoxicity and death occurred significantly”.
On to tannic acid-maleimide [TAMA], for which the “cytotoxicity (live/dead assay)” value is listed as “a slight level of cytotoxicity”.

The values are drawn from US20250073138A1, “Lipid-based nanoparticles for enhancing percutaneous absorption and manufacturing method thereof” (COSMECCA KOREA CO., LTD., priority 2023, published 2025).
